# Test results taken from US11603349B2, “Anti-fibrotic compounds” (Certa Therapeutics Pty Ltd, priority 2017, dated 2023).
# pIC50: −log10 of the molar value.
# Experiments:
# [1] = system: TGF-β induced [14C]-proline incorporation in rat mesangial cells; experiment: [14C]-proline incorporation assay (collagen biosynthesis); format: cell-based; conditions: Rattus norvegicus, Mesangial cell, 44 h
# [2] = MTS tetrazolium reduction cell viability assay; conditions: rat, rat mesangial cells (1097/IRMC cells), TGF-β1 stimulated, CC50 (μM), vs 1% DMSO vehicle
# [3] = inhibition of TGF-β1 (1 ng/ml) induced [14C]-proline incorporation, IRMC cells
Structure (SMILES),"pIC50 [1, 3]",CC50 at 48 h [2] [µM],pIC50 [1]
"C#CCOc1ccc(/C=C/C(=O)Nc2ccccc2F)cc1OC [Example 1, (E)-N-(2-fluorophenyl)-3-(3-methoxy-4-(prop-2-yn-1-yloxy)phenyl)acrylamide]",4.96,> 300,
"C#CCOc1ccc(/C=C/C(=O)Nc2ccccc2-c2n[nH]c(C)n2)cc1OC [Example 2, (E)-3-(3-methoxy-4-(prop-2-yn-1-yloxy)phenyl)-N-(2-(5-methyl-1H-1,2,4-triazol-3-yl)phenyl)acrylamide]",4.98,> 300,
"C#CCOc1ccc(/C=C/C(=O)Nc2ccccc2Cl)cc1OC [Example 3, (E)-N-(2-chlorophenyl)-3-(3-methoxy-4-(prop-2-yn-1-yloxy)phenyl)acrylamide]",5.40,71.1,
"C#CCOc1ccc(/C=C/C(=O)Nc2ccccc2Br)cc1OC [Example 4, (E)-N-(2-bromophenyl)-3-(3-methoxy-4-(prop-2-yn-1-yloxy)phenyl)acrylamide]",5.36,323,
"C#CCOc1ccc(/C=C/C(=O)Nc2ccccc2C#N)cc1OC [Example 6, (E)-N-(2-cyanophenyl)-3-(3-methoxy-4-(prop-2-yn-1-yloxy)phenyl)acrylamide]",4.94,> 300,
"C#CCOc1ccc(/C=C/C(=O)Nc2ccccc2)cc1OC [Example 8, (E)-3-(3-methoxy-4-(prop-2-yn-1-yloxy)phenyl)-N-phenylacrylamide]",,109,5.27
"C#CCOc1ccc(/C=C/C(=O)N2CCCc3ccccc32)cc1OC [Example 10, (E)-1-(3,4-dihydroquinolin-1(2H)-yl)-3-(3-methoxy-4-(prop-2-yn-1-yloxy)phenyl)prop-2-en-1-one]",5.22,66.4,
"C#CCOc1ccc(/C=C/C(=O)N2CCNc3ccccc32)cc1OC [Example 11, (E)-1-(3,4-dihydroquinoxalin-1(2H)-yl)-3-(3-methoxy-4-(prop-2-yn-1-yloxy)phenyl)prop-2-en-1-one]",5.15,104,
"C#CCOc1ccc(/C=C/C(=O)N2CCOc3ccccc32)cc1OC [Example 12, (E)-1-(2,3-dihydro-4H-benzo[b][1,4]oxazin-4-yl)-3-(3-methoxy-4-(prop-2-yn-1-yloxy)phenyl)prop-2-en-1-one]",4.99,335,
"C#CCOc1ccc(/C=C/C(=O)N2CCC(O)c3ccccc32)cc1OC (stereo not shown) [Example 14, (E)-1-(4-hydroxy-3,4-dihydroquinolin-1(2H)-yl)-3-(3-methoxy-4-(prop-2-yn-1-yloxy)phenyl)prop-2-en-1-one]",4.98,48.9,
"C#CCOc1ccc(/C=C/C(=O)Nc2ccccc2-c2nn[nH]n2)cc1OC [Example 16, (E)-N-(2-(2H-tetrazol-5-yl)phenyl)-3-(3-methoxy-4-(prop-2-yn-1-yloxy)phenyl)acrylamide]",4.65,107,
"C#CCOc1ccc(/C=C/C(=O)Nc2ccccc2-c2ncon2)cc1OC [Example 17, (E)-N-(2-(1,2,4-oxadiazol-3-yl)phenyl)-3-(3-methoxy-4-(prop-2-yn-1-yloxy)phenyl)acrylamide]",4.50,> 300,
"C#CCOc1ccc(/C=C/C(=O)Nc2ccccc2-c2noc(C)n2)cc1OC [Example 18, (E)-3-(3-methoxy-4-(prop-2-yn-1-yloxy)phenyl)-N-(2-(5-methyl-1,2,4-oxadiazol-3-yl)phenyl)-acrylamide]",4.76,151,
"C#CCOc1ccc(/C=C/C(=O)Nc2ccccc2-c2cnn(C)c2)cc1OC [Example 22, (E)-3-(3-methoxy-4-(prop-2-yn-1-yloxy)phenyl)-N-(2-(1-methyl-1H-pyrazol-4-yl)phenyl)-acrylamide]",,240,4.79
"C#CCOc1ccc(/C=C/C(=O)Nc2ccccc2-c2c[nH]cn2)cc1OC [Example 25, (E)-N-(2-(1H-imidazol-4-yl)phenyl)-3-(3-methoxy-4-(prop-2-yn-1-yloxy)phenyl)acrylamide]",4.34,> 300,
"C#CCOc1ccc(/C=C/C(=O)Nc2ccccc2C(=O)NS(C)(=O)=O)cc1OC [Example 27, (E)-2-(3-(3-methoxy-4-(prop-2-yn-1-yloxy)phenyl)acrylamido)-N-(methylsulfonyl)benzamide]",4.67,120,
"C#CCOc1ccc(/C=C/C(=O)Nc2ccccc2-c2nc(C)no2)cc1OC [Example 28, (E)-3-(3-methoxy-4-(prop-2-yn-1-yloxy)phenyl)-N-(2-(3-methyl-1,2,4-oxadiazol-5-yl)phenyl)acryl-amide]",4.94,146,

# Further molecules by rising pIC50 [1, 3], results first:
"pIC50 [1, 3]",Structure (SMILES),CC50 at 48 h [2] [µM],pIC50 [1]
4.58,"C#CCOc1ccc(/C=C/C(=O)Nc2ccccc2-n2cnc(C)n2)cc1OC [Example 23, (E)-3-(3-methoxy-4-(prop-2-yn-1-yloxy)phenyl)-N-(2-(3-methyl-1H-1,2,4-triazol-1-yl)phenyl)acryl-amide]",104,
4.60,"C#CCOc1ccc(/C=C/C(=O)n2nc(O)c3ccccc32)cc1OC [Example 15, (E)-1-(3-hydroxy-1H-indazol-1-yl)-3-(3-methoxy-4-(prop-2-yn-1-yloxy)phenyl)prop-2-en-1-one]",304,
4.60,"C#CCOc1ccc(/C=C/C(=O)Nc2ccccc2-c2nnco2)cc1OC [Example 21, (E)-N-(2-(1,3,4-oxadiazol-2-yl)phenyl)-3-(3-methoxy-4-(prop-2-yn-1-yloxy)phenyl)acrylamide]",> 300,
4.71,"C#CCOc1ccc(/C=C/C(=O)Nc2ccccc2-c2noc(=O)[nH]2)cc1OC [Example 19, (E)-3-(3-methoxy-4-(prop-2-yn-1-yloxy)phenyl)-N-(2-(5-oxo-4,5-dihydro-1,2,4-oxadiazol-3-yl)phenyl)acrylamide]",122,
4.87,"C#CCOc1ccc(/C=C/C(=O)Nc2ccccc2-c2cn(C)cn2)cc1OC [Example 26, (E)-3-(3-methoxy-4-(prop-2-yn-1-yloxy)phenyl)-N-(2-(1-methyl-1H-imidazol-4-yl)phenyl)acrylamide]",190,
4.89,"C#CCOc1ccc(/C=C/C(=O)Nc2ccccc2-c2cn[nH]c2)cc1OC [Example 24, (E)-N-(2-(1H-pyrazol-4-yl)phenyl)-3-(3-methoxy-4-(prop-2-yn-1-yloxy)phenyl)acrylamide]",41.4,
4.98,"C#CCOc1ccc(/C=C/C(=O)Nc2ccccc2C)cc1OC [Example 5, (E)-3-(3-methoxy-4-(prop-2-yn-1-yloxy)phenyl)-N-(o-tolyl)acrylamide]",369,
5.71,"C#CCOc1ccc(/C=C/C(=O)Nc2ccc(Cl)c(Cl)c2)cc1OC [Example 7, (E)-N-(3,4-dichlorophenyl)-3-(3-methoxy-4-(prop-2-yn-1-yloxy)phenyl)acrylamide]",62.5,
5.71,"C#CCOc1ccc(/C=C/C(=O)N2CCC(C(=O)OC)c3ccccc32)cc1OC (stereo not shown) [Example 9, methyl (E)-1-(3-(3-methoxy-4-(prop-2-yn-1-yloxy)phenyl)acryloyl)-1,2,3,4-tetrahydroquinoline-4-carboxylate]",25.5,
